According to PubChem BioAssay (NCI):
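Cells were grown in 96-well plates and exposed to each compound for 48 hours at five concentrations; endpoints were interpolated linearly between bracketing concentrations, or set to the highest concentration if not reached. GI50 is the concentration that inhibits growth by half. TGI denotes the concentration required for complete inhibition of growth.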

Columns and labels:
Assay in all cases: inhibition of tumour cell growth, NCI panel, 48 h
786-0 renal = tested on: 786-0 renal
A498 renal = tested on: A498 renal
A549 NSCLC = tested on: A549 NSCLC
ACHN renal = tested on: ACHN renal
CAKI-1 renal = tested on: CAKI-1 renal
COLO 205 colon = tested on: COLO 205 colon
DU-145 prostate = tested on: DU-145 prostate
EKVX NSCLC = tested on: EKVX NSCLC
HCC-2998 colon = tested on: HCC-2998 colon
HCT-116 colon = tested on: HCT-116 colon
HCT-15 colon = tested on: HCT-15 colon
HOP-62 NSCLC = tested on: HOP-62 NSCLC
HOP-92 NSCLC = tested on: HOP-92 NSCLC
HS 578T breast = tested on: HS 578T breast
HT29 colon = tested on: HT29 colon
IGROV1 ovarian = tested on: IGROV1 ovarian
K-562 leukemia = tested on: K-562 leukemia
KM12 colon = tested on: KM12 colon
M14 melanoma = tested on: M14 melanoma
MCF7 breast = tested on: MCF7 breast
MDA-MB-435 = tested on: MDA-MB-435
MOLT-4 leukemia = tested on: MOLT-4 leukemia
NCI-H226 lung = tested on: NCI-H226 lung
NCI-H460 lung = tested on: NCI-H460 lung
NCI-H522 lung = tested on: NCI-H522 lung
NCI/ADR-RES ovarian = tested on: NCI/ADR-RES ovarian
OVCAR-4 ovarian = tested on: OVCAR-4 ovarian
OVCAR-5 ovarian = tested on: OVCAR-5 ovarian
OVCAR-8 ovarian = tested on: OVCAR-8 ovarian
PC-3 prostate = tested on: PC-3 prostate
RPMI-8226 leukemia = tested on: RPMI-8226 leukemia
RXF 393 renal = tested on: RXF 393 renal
SF-268 CNS = tested on: SF-268 CNS
SF-295 CNS = tested on: SF-295 CNS
SF-539 CNS = tested on: SF-539 CNS
SK-MEL-2 melanoma = tested on: SK-MEL-2 melanoma
SK-MEL-28 melanoma = tested on: SK-MEL-28 melanoma
SK-MEL-5 melanoma = tested on: SK-MEL-5 melanoma
SK-OV-3 ovarian = tested on: SK-OV-3 ovarian
SNB-19 CNS = tested on: SNB-19 CNS
SNB-75 CNS = tested on: SNB-75 CNS
SW-620 colon = tested on: SW-620 colon
T-47D breast = tested on: T-47D breast
TK-10 renal = tested on: TK-10 renal
U251 CNS = tested on: U251 CNS
UACC-257 melanoma = tested on: UACC-257 melanoma
UACC-62 melanoma = tested on: UACC-62 melanoma
UO-31 renal = tested on: UO-31 renal
HL-60(TB) leukemia = tested on: HL-60(TB) leukemia
MALME-3M melanoma = tested on: MALME-3M melanoma
MDA-MB-231 breast = tested on: MDA-MB-231 breast
OVCAR-3 ovarian = tested on: OVCAR-3 ovarian
SN12C renal = tested on: SN12C renal
SR leukemia = tested on: SR leukemia

Cc1ccc(Cl)cc1NC(=O)c1sc2nc3c(cc2c1N)C(=O)CCC3
GI50 (786-0 renal): > 100 µM
TGI (786-0 renal): > 100 µM
GI50 (A498 renal): 1.86 µM
TGI (A498 renal): > 100 µM
GI50 (A549 NSCLC): 3.85 µM
TGI (A549 NSCLC): > 100 µM
GI50 (ACHN renal): 50.4 µM
TGI (ACHN renal): > 100 µM
GI50 (CAKI-1 renal): 3.33 µM
TGI (CAKI-1 renal): > 100 µM
GI50 (COLO 205 colon): 4.41 µM
TGI (COLO 205 colon): > 100 µM
GI50 (DU-145 prostate): 4.4 µM
TGI (DU-145 prostate): > 100 µM
GI50 (EKVX NSCLC): 7.26 µM
TGI (EKVX NSCLC): > 100 µM
GI50 (HCC-2998 colon): > 100 µM
TGI (HCC-2998 colon): > 100 µM
GI50 (HCT-116 colon): 5.97 µM
TGI (HCT-116 colon): > 100 µM
GI50 (HCT-15 colon): 4.79 µM
TGI (HCT-15 colon): > 100 µM
GI50 (HOP-62 NSCLC): > 100 µM
TGI (HOP-62 NSCLC): > 100 µM
GI50 (HOP-92 NSCLC): > 100 µM
TGI (HOP-92 NSCLC): > 100 µM
GI50 (HS 578T breast): 2.34 µM
TGI (HS 578T breast): > 100 µM
GI50 (HT29 colon): 3.54 µM
TGI (HT29 colon): > 100 µM
GI50 (IGROV1 ovarian): > 100 µM
TGI (IGROV1 ovarian): > 100 µM
GI50 (K-562 leukemia): 3.48 µM
TGI (K-562 leukemia): > 100 µM
GI50 (KM12 colon): 3.65 µM
TGI (KM12 colon): > 100 µM
GI50 (M14 melanoma): 6.31 µM
TGI (M14 melanoma): > 100 µM
GI50 (MCF7 breast): 4.67 µM
TGI (MCF7 breast): > 100 µM
GI50 (MDA-MB-435): 1.1 µM
TGI (MDA-MB-435): 5.04 µM
GI50 (MOLT-4 leukemia): > 100 µM
TGI (MOLT-4 leukemia): > 100 µM
GI50 (NCI-H226 lung): > 100 µM
TGI (NCI-H226 lung): > 100 µM
GI50 (NCI-H460 lung): 3.73 µM
TGI (NCI-H460 lung): > 100 µM
GI50 (NCI-H522 lung): 2.17 µM
TGI (NCI-H522 lung): 4.95 µM
GI50 (NCI/ADR-RES ovarian): 5.28 µM
TGI (NCI/ADR-RES ovarian): > 100 µM
GI50 (OVCAR-4 ovarian): > 100 µM
TGI (OVCAR-4 ovarian): > 100 µM
GI50 (OVCAR-5 ovarian): > 100 µM
TGI (OVCAR-5 ovarian): > 100 µM
GI50 (OVCAR-8 ovarian): > 100 µM
TGI (OVCAR-8 ovarian): > 100 µM
GI50 (PC-3 prostate): 4.34 µM
TGI (PC-3 prostate): > 100 µM
GI50 (RPMI-8226 leukemia): > 100 µM
TGI (RPMI-8226 leukemia): > 100 µM
GI50 (RXF 393 renal): 2.48 µM
TGI (RXF 393 renal): 6.96 µM
GI50 (SF-268 CNS): > 100 µM
TGI (SF-268 CNS): > 100 µM
GI50 (SF-295 CNS): 2.33 µM
TGI (SF-295 CNS): 7.44 µM
GI50 (SF-539 CNS): 4.65 µM
TGI (SF-539 CNS): > 100 µM
GI50 (SK-MEL-2 melanoma): 3.14 µM
TGI (SK-MEL-2 melanoma): > 100 µM
GI50 (SK-MEL-28 melanoma): > 100 µM
TGI (SK-MEL-28 melanoma): > 100 µM
GI50 (SK-MEL-5 melanoma): 3.48 µM
TGI (SK-MEL-5 melanoma): > 100 µM
GI50 (SK-OV-3 ovarian): 5.26 µM
TGI (SK-OV-3 ovarian): > 100 µM
GI50 (SNB-19 CNS): 5.64 µM
TGI (SNB-19 CNS): > 100 µM
GI50 (SNB-75 CNS): 4.1 µM
TGI (SNB-75 CNS): > 100 µM
GI50 (SW-620 colon): 3.68 µM
TGI (SW-620 colon): > 100 µM
GI50 (T-47D breast): > 100 µM
TGI (T-47D breast): > 100 µM
GI50 (TK-10 renal): 8.99 µM
TGI (TK-10 renal): > 100 µM
GI50 (U251 CNS): 4.45 µM
TGI (U251 CNS): > 100 µM
GI50 (UACC-257 melanoma): 7.3 µM
TGI (UACC-257 melanoma): > 100 µM
GI50 (UACC-62 melanoma): 4.45 µM
TGI (UACC-62 melanoma): > 100 µM
GI50 (UO-31 renal): > 100 µM
TGI (UO-31 renal): > 100 µM

OC(c1cc(C23CC4CC(CC(C4)C2)C3)nc2c(Cl)cc(Cl)cc12)C1CCCCN1 (configuration not stated)
TGI (786-0 renal): 3.21 µM
TGI (A498 renal): 3.05 µM
TGI (A549 NSCLC): 3.08 µM
TGI (ACHN renal): 2.94 µM
TGI (CAKI-1 renal): 3.24 µM
TGI (DU-145 prostate): 3.29 µM
TGI (EKVX NSCLC): 3.59 µM
TGI (HCT-116 colon): 2.7 µM
TGI (HL-60(TB) leukemia): 3.59 µM
TGI (HOP-62 NSCLC): 2.97 µM
TGI (HOP-92 NSCLC): 2.67 µM
TGI (HS 578T breast): 3.89 µM
TGI (HT29 colon): 3.04 µM
TGI (IGROV1 ovarian): 3.45 µM
TGI (K-562 leukemia): 3.07 µM
TGI (KM12 colon): 3.07 µM
TGI (M14 melanoma): 3.13 µM
TGI (MALME-3M melanoma): 3.71 µM
TGI (MCF7 breast): 2.9 µM
TGI (MDA-MB-231 breast): 2.78 µM
TGI (MOLT-4 leukemia): 3.57 µM
TGI (NCI-H226 lung): 3.77 µM
TGI (NCI-H460 lung): 3.13 µM
TGI (NCI-H522 lung): 3.33 µM
TGI (OVCAR-3 ovarian): 3.3 µM
TGI (OVCAR-5 ovarian): 3.17 µM
TGI (OVCAR-8 ovarian): 3.18 µM
TGI (PC-3 prostate): 3.09 µM
TGI (RXF 393 renal): 3.07 µM
TGI (SF-268 CNS): 3.25 µM
TGI (SF-295 CNS): 3.76 µM
TGI (SF-539 CNS): 3.22 µM
TGI (SK-MEL-2 melanoma): 3.46 µM
TGI (SN12C renal): 3.13 µM
TGI (SNB-75 CNS): 2.96 µM
TGI (SR leukemia): 2.84 µM
TGI (TK-10 renal): 3.23 µM
TGI (U251 CNS): 3 µM
TGI (UACC-257 melanoma): 3.53 µM
TGI (UACC-62 melanoma): 3.16 µM
TGI (UO-31 renal): 2.35 µM
